Measured values as given in ChEMBL document CHEMBL1157454, “Citral derived amides as potent bacterial NorA efflux pump inhibitors” (2008).
≈ marks a conversion by molar mass, not a printed value. Calls of active or inactive are those of the source. The rule behind the calls is not given here.

Key:
Staphylococcus aureus [1] = test: Antimicrobial activity against Staphylococcus aureus 1199 at 100 ug/ml after 18 hrs by twofold serial dilution method; format: functional, organism-based
Staphylococcus aureus [2] = test: Antimicrobial activity against NorA overexpressing Staphylococcus aureus 1199B at 100 ug/ml after 18 hrs by twofold serial dilution method; format: functional, organism-based
[3] = target: T1, Quinolone resistance protein NorA (Staphylococcus aureus) (UniProt P0A0J7); test: Inhibition of NorA efflux pump in Staphylococcus aureus 1199 assessed as fold reduction of ciprofloxacin MIC at 25 ug/ml
T1 sequence (whole entry): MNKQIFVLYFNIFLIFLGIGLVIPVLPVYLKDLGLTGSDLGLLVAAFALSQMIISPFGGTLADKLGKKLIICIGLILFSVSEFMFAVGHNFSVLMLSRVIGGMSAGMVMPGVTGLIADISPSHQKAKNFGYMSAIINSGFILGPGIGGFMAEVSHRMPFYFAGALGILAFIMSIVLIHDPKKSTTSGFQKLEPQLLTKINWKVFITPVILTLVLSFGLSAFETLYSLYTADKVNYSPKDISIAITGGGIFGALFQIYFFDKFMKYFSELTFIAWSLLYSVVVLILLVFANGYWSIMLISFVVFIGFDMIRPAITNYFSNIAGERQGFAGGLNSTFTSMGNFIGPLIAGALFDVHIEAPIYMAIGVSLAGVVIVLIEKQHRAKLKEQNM

[4] = target: T1, Quinolone resistance protein NorA (Staphylococcus aureus); test: Inhibition of NorA efflux pump in Staphylococcus aureus 1199B assessed as fold reduction of ciprofloxacin MIC at 25 ug/ml
[5] = target: T1, Quinolone resistance protein NorA (Staphylococcus aureus); test: Inhibition of NorA efflux pump in Staphylococcus aureus 1199B assessed as fold reduction of ciprofloxacin MIC at 12.5 ug/ml
[6] = target: T1, Quinolone resistance protein NorA (Staphylococcus aureus)
[7] = target: T1, Quinolone resistance protein NorA (Staphylococcus aureus); details: 1199B
[8] = target: T1, Quinolone resistance protein NorA (Staphylococcus aureus); test: Inhibition of NorA efflux pump in Staphylococcus aureus 1199B assessed as fold reduction of ciprofloxacin MIC at 6.25 ug/ml
[9] = target: T1, Quinolone resistance protein NorA (Staphylococcus aureus); test: Inhibition of NorA efflux pump in Staphylococcus aureus 1199 assessed as fold reduction of ciprofloxacin MIC at 6.25 ug/ml
[10] = target: T1, Quinolone resistance protein NorA (Staphylococcus aureus); test: Inhibition of NorA efflux pump in Staphylococcus aureus 1199 assessed as fold reduction of ciprofloxacin MIC at 12.5 ug/ml

Row | SMILES | Activity (Staphylococcus aureus [1]) | Activity (Staphylococcus aureus [2]) | fold reduction [4] | further results
1 | CC(C)=CCC/C(C)=C/C=C/C(=O)Nc1ccccc1 | inactive | inactive | – | –
2 | C/C(C=O)=C\CC/C(C)=C/C=C/C(=O)N1CCOCC1 | inactive | inactive | – | –
3 | COc1ccc(NC(=O)/C=C/C=C(\C)CCC=C(C)C)cc1 | inactive | inactive | – | –
4 | COc1ccccc1NC(=O)/C=C/C=C(\C)CCC=C(C)C | inactive | inactive | 4 | fold reduction [3]: 2
5 | CC(C)c1cc2c(c(O)c1O)[C@@]1(C(=O)O)CCCC(C)(C)[C@@H]1CC2 | – | – | 2 | fold reduction [3]: 2
6 | CC(C)=CCC/C(C)=C/C=C/C(=O)NCc1ccccc1 | inactive | inactive | 4 | fold reduction [5]: 2; fold reduction [3]: 2
7 | CC(C)=CCC/C(C)=C/C=C/C(=O)NC(C)C | inactive | inactive | – | –
8 | CC(C)=CCC/C(C)=C/C=C/C(=O)N1CCCC1 | inactive | inactive | – | –
9 | CC(C)=CCCC(C)C/C=C/C(=O)NCc1ccccc1 (stereo not given) | inactive | inactive | – | MIC [6]: 4 µg/mL (≈ 14 µM); MIC [7]: 4 µg/mL (≈ 14 µM)
10 | CCCCCCCCNC(=O)/C=C/CC(C)CC/C=C(\C)C=O (stereo not given) | inactive | inactive | 4 | –
11 | CC(C)=CCCC(C)C/C=C/C(=O)N1CCCCC1 (stereo not given) | inactive | inactive | – | fold reduction [5]: 2
12 | C/C(C=O)=C\CC/C(C)=C/C=C/C(=O)N1CCCCC1 | inactive | inactive | 4 | fold reduction [8]: 2; fold reduction [9]: 2
13 | CC(C)=CCC/C(C)=C/C=C/C(=O)N1CCCCC1 | inactive | inactive | – | fold reduction [10]: 2; fold reduction [5]: 2
14 | CC(C)=CCC/C(C)=C/C=C/C(=O)NCC(C)C | inactive | inactive | – | –
15 | COc1ccccc1NC(=O)CCCC(C)CCC=C(C)C (stereo not given) | inactive | inactive | – | –
16 | C/C(C=O)=C\CC/C(C)=C/C=C/C(=O)NCc1ccccc1 | inactive | inactive | 4 | fold reduction [5]: 2; fold reduction [3]: 2

Row | SMILES | Activity (Staphylococcus aureus [1]) | Activity (Staphylococcus aureus [2]) | fold reduction [4] | further results
17 | CCCCCCCCNC(=O)/C=C/C=C(\C)CC/C=C(\C)C=O | inactive | inactive | 4 | fold reduction [10]: 2; fold reduction [5]: 2; fold reduction [3]: 2
18 | C/C(C=O)=C\CCC(C)CCCC(=O)NCc1ccccc1 (stereo not given) | inactive | inactive | – | –
19 | COc1ccccc1NC(=O)/C=C/CC(C)CCC=C(C)C (stereo not given) | inactive | inactive | – | fold reduction [5]: 2
20 | CC(C)=CCC/C(C)=C/C=C/C(=O)N(C(C)C)C(C)C | inactive | inactive | 4 | fold reduction [3]: 2
21 | COC(=O)[C@H]1[C@H]2C[C@@H]3c4[nH]c5cc(OC)ccc5c4CCN3C[C@H]2C[C@@H](OC(=O)c2cc(OC)c(OC)c(OC)c2)[C@@H]1OC | – | – | 4 | fold reduction [3]: 2
22 | CCCCCCCCNC(=O)/C=C/C=C(\C)CCC=C(C)C | inactive | inactive | 4 | fold reduction [10]: 2; fold reduction [5]: 2; fold reduction [3]: 4
23 | C/C(C=O)=C\CC/C(C)=C/C=C/C(=O)N(C(C)C)C(C)C | inactive | inactive | 4 | fold reduction [5]: 2
24 | C/C(C=O)=C\CCC(C)CCCC(=O)N1CCCCC1 (stereo not given) | inactive | inactive | – | –
25 | CCCCCCCCNC(=O)/C=C/CC(C)CCC=C(C)C (stereo not given) | inactive | inactive | – | –
26 | CC(C)=CCC/C(C)=C/C=C/C(=O)Nc1ccccc1C | inactive | inactive | – | –
27 | O=C(/C=C/C=C/c1ccc2c(c1)OCO2)N1CCCCC1 | – | – | – | MIC [6]: 2 µg/mL (≈ 7.01 µM); MIC [7]: 2 µg/mL (≈ 7.01 µM)
28 | CC(C)=CCC/C(C)=C/C=C/C(=O)N1CCOCC1 | inactive | inactive | – | –
29 | CC(C)=CCC/C(C)=C/C=C/C(=O)O | inactive | inactive | – | –
30 | C/C(C=O)=C\CC/C(C)=C/C=C/C(=O)N1CCCC1 | inactive | inactive | – | –
31 | CCCCCCCCNC(=O)CCCC(C)CCC=C(C)C (stereo not given) | inactive | inactive | – | –
32 | COc1ccccc1NC(=O)/C=C/CC(C)CC/C=C(\C)C=O (stereo not given) | inactive | inactive | 4 | –
